Measured values published in patent US7138361B2, “Herbicidal heterocycles” (E. I. du Pont de Nemours and Company, priority 2000, dated 2006).

Legend:
Type in all cases: in vivo
[1] = test system: chickweed (Stellaria media); assay: Test C postemergence
Excerpt: (§1) Seeds of plant species selected from bermudagrass (Cynodon dactylon), Surinam grass (Brachiaria decumbens), cocklebur (Xanthium strumarium), corn (Zea mays), crabgrass (Digitaria sanguinalis), woolly cupgrass (Eriochloa villosa), giant foxtail (Setaria faberii), goosegrass (Eleusine indica), johnsongrass (Sorghum halepense), kochia (Kochia scoparia), lambsquarters (Chenopodium album), morningglory (Ipomoea hederacea), yellow nutsedge (Cyperus esculentus), pigweed (Amaranthus retroflexus), common ragweed (Ambrosia elatior), soybean (Glycine max) and velvetleaf (Abutilon theophrasti) were planted and treated preemergence with test chemicals formulated in a non-phytotoxic solvent mixture which included a surfactant.
(§2) At the same time, plants selected from these crop and weed species and also winter barley (Hordeum vulgare), blackgrass (Alopecurus myosuroides), canary grass (Phalaris minor), chickweed (Stellaria media), downy brome (Bromus tectorum), green foxtail (Setaria viridis), Italian ryegrass (Lolium multiflorum), wheat (Triticum aestivum), wild oat (Avena fatua) and windgrass (Apera spica-venti) were treated with postemergence applications of some of the test chemicals formulated in the same manner. Plants ranged in height from 2 to 18 cm (1- to 4-leaf stage) for postemergence treatments. Plant species in the flooded paddy test consisted of rice (Oryza saliva), smallflower flatsedge (Cyperus difformis), duck salad (Heteranthera limosa) and barnyardgrass (Echinochloa crus-galli) grown to the 2-leaf stage for testing. Treated plants and controls were maintained in a greenhouse for 12 to 14 days, after which time all species were compared to controls and visually evaluated. Plant response ratings, summarized in Table C, are based on a scale of 0 to 100 where 0 is no effect and 100 is complete control. A dash (-) response means no test result.

[2] = test system: yellow nutsedge (Cyperus esculentus); assay: Test C postemergence
Excerpt: as §1, §2

[3] = test system: Surinam grass (Brachiaria decumbens); assay: Test C postemergence
Excerpt: as §1, §2

[4] = test system: bermudagrass (Cynodon dactylon); assay: Test C postemergence
Excerpt: as §1, §2

[5] = test system: pigweed (Amaranthus retroflexus); assay: Test C postemergence
Excerpt: as §1, §2

[6] = test system: morningglory (Ipomoea hederacea); assay: Test C postemergence
Excerpt: as §1, §2

[7] = test system: johnsongrass (Sorghum halepense); assay: Test C postemergence
Excerpt: as §1, §2

[8] = test system: cocklebur (Xanthium strumarium); assay: Test C postemergence
Excerpt: as §1, §2

[9] = test system: giant foxtail (Setaria faberii); assay: Test C postemergence
Excerpt: as §1, §2

[10] = test system: common ragweed (Ambrosia elatior); assay: Test C postemergence
Excerpt: as §1, §2

[11] = test system: kochia (Kochia scoparia); assay: Test C postemergence
Excerpt: as §1, §2

[12] = test system: corn (Zea mays); assay: Test C postemergence
Excerpt: as §1, §2

[13] = test system: crabgrass (Digitaria sanguinalis); assay: Test C postemergence
Excerpt: as §1, §2

[14] = test system: woolly cupgrass (Eriochloa villosa); assay: Test C postemergence
Excerpt: as §1, §2

[15] = test system: rice (Oryza saliva); assay: Test C flooded paddy test; conditions: for Rice plant response rating: Flooded Paddy, scale 0 to 100, 0 no effect, 100 complete control; for Plant response rating, Rice: flooded paddy test, scale 0 to 100 (0 no effect, 100 complete control)
In short: (§3)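 Rice and three paddy weeds were grown to the 2-leaf stage under flooded conditions, then treated and kept in a greenhouse for 12–14 days. Response was rated visually against untreated controls on a 0–100 scale, where 100 is complete control.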

[16] = test system: barnyardgrass (Echinochloa crus-galli); assay: Test C flooded paddy test; conditions: for Barnyardgrass plant response rating: Flooded Paddy, scale 0 to 100, 0 no effect, 100 complete control; for Plant response rating, Barnyardgrass: flooded paddy test, scale 0 to 100 (0 no effect, 100 complete control)
In short: as §3

[17] = test system: duck salad (Heteranthera limosa); assay: Test C flooded paddy test; conditions: for Ducksalad plant response rating: Flooded Paddy, scale 0 to 100, 0 no effect, 100 complete control; for Plant response rating, Ducksalad: flooded paddy test, scale 0 to 100 (0 no effect, 100 complete control)
In short: as §3

[18] = test system: Sunflower; assay: Test C preemergence; conditions: Rate 62 g/ha, scale 0 to 100
[19] = Rate 125 g/ha, scale 0 to 100, 0 no effect, 100 complete control
[20] = Rate 250 g/ha, scale 0 to 100 (0 no effect, 100 complete control)
[21] = Rate 500 g/ha, scale 0 to 100 (0 no effect, 100 complete control)

CCC(C)c1ccn(C2SCN(c3cccc(OC(F)(F)F)c3)C2=O)n1 (stereo not shown) [Compound 40]
20: Plant response rating, Nutsedge [2, 21] | Plant response rating, Bermudagrass [4, 19] | Plant response rating, Johnsongrass [7, 20] | Plant response rating, Kochia ([11]; Rate 62 g/ha, scale 0 to 100) | Plant response rating, Corn [12, 20] | Plant response rating, Rice ([15]; Rate 62 g/ha)
0: Plant response rating, Chickweed ([1]; Rate 62 g/ha, scale 0 to 100) | Plant response rating, Chickweed [1, 19] | Plant response rating, Chickweed [1, 20] | Plant response rating, Chickweed [1, 21] | Plant response rating, Nutsedge ([2]; Rate 62 g/ha, scale 0 to 100) | Plant response rating, Nutsedge [2, 19] | Plant response rating, Nutsedge [2, 20] | Plant response rating, Surinam grass ([3]; Rate 62 g/ha, scale 0 to 100) | Plant response rating, Surinam grass [3, 19] | Plant response rating, Surinam grass [3, 20] | Plant response rating, Surinam grass [3, 21] | Plant response rating, Bermudagrass ([4]; Rate 62 g/ha, scale 0 to 100) | Plant response rating, Pigweed ([5]; Rate 62 g/ha, scale 0 to 100) | Plant response rating, Pigweed [5, 19] | Plant response rating, Morningglory ([6]; Rate 62 g/ha, scale 0 to 100) | Plant response rating, Morningglory [6, 19] | Plant response rating, Morningglory [6, 20] | Plant response rating, Morningglory [6, 21] | Plant response rating, Johnsongrass ([7]; Rate 62 g/ha, scale 0 to 100) | Plant response rating, Johnsongrass [7, 19] | Plant response rating, Cocklebur ([8]; Rate 62 g/ha, scale 0 to 100) | Plant response rating, Cocklebur [8, 19] | Plant response rating, Cocklebur [8, 20] | Plant response rating, Cocklebur [8, 21] | Plant response rating, Foxtail, Giant ([9]; Rate 62 g/ha, scale 0 to 100) | Plant response rating, Foxtail, Giant [9, 19] | Plant response rating, Foxtail, Giant [9, 20] | Plant response rating, Foxtail, Giant [9, 21] | Plant response rating, Ragweed, Common ([10]; Rate 62 g/ha, scale 0 to 100) | Plant response rating, Ragweed, Common [10, 19] | Plant response rating, Corn ([12]; Rate 62 g/ha, scale 0 to 100) | Plant response rating, Corn [12, 19] | Plant response rating, Crabgrass ([13]; Rate 62 g/ha, scale 0 to 100) | Plant response rating, Crabgrass [13, 19] | Plant response rating, Crabgrass [13, 20] | Plant response rating, Crabgrass [13, 21] | Plant response rating, Cupgrass, Woolly ([14]; Rate 62 g/ha, scale 0 to 100) | Plant response rating, Cupgrass, Woolly [14, 19] | Plant response rating, Cupgrass, Woolly [14, 20] | Plant response rating, Cupgrass, Woolly [14, 21]
50: Plant response rating, Pigweed [5, 20] | Plant response rating, Pigweed [5, 21] | Plant response rating, Kochia [11, 19]
30: Plant response rating, Johnsongrass [7, 21] | Plant response rating, Ragweed, Common [10, 20] | Plant response rating, Corn [12, 21]
70: Plant response rating, Bermudagrass [4, 21] | Plant response rating, Kochia [11, 21] | Rice plant response rating ([15]; Rate 250 g/ha)
90: Rice plant response rating ([15]; Rate 500 g/ha) | Plant response rating, Ducksalad ([17]; Rate 62 g/ha)
40: Plant response rating, Ragweed, Common [10, 21] | Plant response rating, Rice ([15]; Rate 125 g/ha)
100: Barnyardgrass plant response rating ([16]; Rate 250 g/ha) | Barnyardgrass plant response rating ([16]; Rate 500 g/ha) | Plant response rating, Barnyardgrass ([16]; Rate 62 g/ha) | Plant response rating, Barnyardgrass ([16]; Rate 125 g/ha) | Ducksalad plant response rating ([17]; Rate 250 g/ha) | Ducksalad plant response rating ([17]; Rate 500 g/ha) | Plant response rating, Ducksalad ([17]; Rate 125 g/ha)
60: Plant response rating, Bermudagrass [4, 20] | Plant response rating, Kochia [11, 20]

Cc1ccc(N2CCC(n3ccc(C(C)(C)C)n3)C2=O)cc1I (stereo not shown) [Compound 122]
30: Ducksalad plant response rating ([17]; Rate 250 g/ha)
100: Plant response rating, Pigweed [5, 20] | Plant response rating, Pigweed [5, 21] | Plant response rating, Morningglory [6, 21] | Plant response rating, Kochia [11, 20] | Plant response rating, Kochia [11, 21] | Barnyardgrass plant response rating ([16]; Rate 500 g/ha)
20: Plant response rating, Morningglory ([6]; Rate 62 g/ha, scale 0 to 100) | Plant response rating, Cocklebur ([8]; Rate 62 g/ha, scale 0 to 100) | Plant response rating, Cupgrass, Woolly [14, 20] | Plant response rating, Cupgrass, Woolly [14, 21] | Plant response rating, Ducksalad ([17]; Rate 62 g/ha) | Plant response rating, Ducksalad ([17]; Rate 125 g/ha)
40: Plant response rating, Pigweed ([5]; Rate 62 g/ha, scale 0 to 100) | Plant response rating, Cocklebur [8, 20] | Plant response rating, Foxtail, Giant [9, 21]
70: Plant response rating, Cocklebur [8, 21]
90: Plant response rating, Morningglory [6, 20] | Plant response rating, Kochia ([11]; Rate 62 g/ha, scale 0 to 100)
0: Plant response rating, Sunflower [18] | Plant response rating, Nutsedge ([2]; Rate 62 g/ha, scale 0 to 100) | Plant response rating, Nutsedge [2, 20] | Plant response rating, Nutsedge [2, 21] | Plant response rating, Surinam grass ([3]; Rate 62 g/ha, scale 0 to 100) | Plant response rating, Surinam grass [3, 19] | Plant response rating, Surinam grass [3, 20] | Plant response rating, Surinam grass [3, 21] | Plant response rating, Bermudagrass ([4]; Rate 62 g/ha, scale 0 to 100) | Plant response rating, Bermudagrass [4, 19] | Plant response rating, Bermudagrass [4, 20] | Plant response rating, Bermudagrass [4, 21] | Plant response rating, Johnsongrass ([7]; Rate 62 g/ha, scale 0 to 100) | Plant response rating, Johnsongrass [7, 20] | Plant response rating, Johnsongrass [7, 21] | Plant response rating, Johnsongrass ([7]; rate not given, scale 0 to 100) | Plant response rating, Foxtail, Giant ([9]; Rate 62 g/ha, scale 0 to 100) | Plant response rating, Foxtail, Giant [9, 20] | Plant response rating, Corn ([12]; Rate 62 g/ha, scale 0 to 100) | Plant response rating, Corn [12, 20] | Plant response rating, Corn [12, 21] | Plant response rating, Corn ([12]; scale 0 to 100) | Plant response rating, Crabgrass ([13]; Rate 62 g/ha, scale 0 to 100) | Plant response rating, Crabgrass [13, 20] | Plant response rating, Crabgrass [13, 21] | Plant response rating, Cupgrass, Woolly ([14]; Rate 62 g/ha, scale 0 to 100) | Rice plant response rating ([15]; Rate 250 g/ha) | Rice plant response rating ([15]; Rate 500 g/ha) | Plant response rating, Rice ([15]; Rate 62 g/ha) | Plant response rating, Rice ([15]; Rate 125 g/ha) | Barnyardgrass plant response rating ([16]; Rate 250 g/ha) | Plant response rating, Barnyardgrass ([16]; Rate 62 g/ha) | Plant response rating, Barnyardgrass ([16]; Rate 125 g/ha)
60: Ducksalad plant response rating ([17]; Rate 500 g/ha)
